# Assay results published in patent US6528510B1, “HIV protease inhibitors” (Warner-Lambert Company, priority 1998, dated 2003).
# pEC50, pKi: −log10 of the molar value. Like-named read-outs stand apart in the source and are kept apart here.
# Legend:
# [1] = target: T1, Recombinant HIV-1 protease (Human immunodeficiency virus type 1 group M subtype B, UniProt P04585); test: HIV protease assay (Ki determination, HPLC readout of substrate III cleavage); assay type: biochemical
# T1 construct: Recombinant HIV-1 protease (>96% purity); purchased Bachem Bioscience, Inc. (King of Prussia, Pa.)
# Experimental: Recombinant HIV-1 protease (>96% purity) and HIV protease substrate III (the undecapeptide H-His-Lys-Ala-Arg-Val-Leu-Nph-Glu-Ala-Nle-Ser-NH2, 97% purity) were purchased from Bachem Bioscience, Inc. (King of Prussia, Pa.).
# The methods employed follow the procedures of Tummino, et al., Archives of Biochemistry and Biophysics, 1995;316:523). […] (total volume, […]). […] The final inhibitor concentrations used were 0 (0.1, 0.2, in some experiments), 0.5, 1, 2, 5, 10, 20, 50, and 100 μM. The solution was mixed, incubated for 5 minutes and the reaction quenched by addition of trifluoracetic acid, 2% final. The (leu-p-nitro-phe) bond of the substrate is cleaved by the enzyme and substrate arid products separated by reverse-phase HPLC. Absorbance was measured at 220 nm, peak areas determined, and percentage conversion to product used to calculate percentage control (=[% conversion (+inhibitor)/% conversion (−inhibitor)]×100).
# [2] = test system: HIV infected lymphocyte derived CEM cells; test: Cellular infection assay in CEM cells, XTT cytopathic procedure (EC50); details: for TI (therapeutic index, TC50/EC50): CEM cells; for pEC50: Human immunodeficiency virus 1, CCRF-CEM, read-out: Antiviral Efficacy EC50
# Experimental: (§1) Compound concentrations were 0.32, 1, 3.2, 10, 32, and 100 uM.
# [3] = Cellular toxicity in uninfected CEM cells, XTT (TC50); details: human, uninfected CEM cells (lymphocyte derived)
# Experimental: as §1
# [4] = Rat blood levels after IV dosing; assay type: in vivo; details: plasma, rats, IV dose of 10 mg/kg; for half-life: read-out: T 1/2 (half life) (converted)
# Experimental: (§2) The procedure for pharmacokinetics analysis in dogs and rats was similar. For dog studies, two dogs received a single oral 10 mg/kg dose of the HIV protease inhibitor as a solution. The protease inhibitor was dissolve in 0.1N NaOH followed by buffering or diluting with isotonic phosphate buffer or water depending on solubility. For rat studies. two male rats received a single oral 10 mg/kg gavage dose of the HIV protease inhibitor suspended in 0.5% methylcellulose. For the IV administration, the compounds were dissolved in 0.1N sodium hydroxide at a concentration of 10 mg/ml. The IV dose was given bolus. Blood samples were collected prior to dosing and at 0.25, 0.5, 1, 1.5, 2, 3, 4, 8, 12, and 24 hours postdose. Plasma samples were analyzed for the HIV protease inhibitor using a HPLC procedure. The method involved plasma protein precipitation with acetonitrile, reverse-phase chromatographic separation of the HIV protease inhibitor and internal standard, and quantitation by UV detection. Some plasma samples were concentrated by evaporation prior to injection. Pharmacokinetic parameters were determined by noncompartmental analysis of individual rat-plasma concentration-time curves using WinNonlin. Maximum concentration (Cmax) and time for these to occur (tmax) were recorded as observed. Area under concentration-time curve (AUC) values were obtained using the linear trapezoidal rule.
# [5] = Mouse blood levels after oral dosing; assay type: in vivo, Charles River CD-1 mice; details: CD-1, mouse, plasma, mice, oral dose of 25 mg/kg; for Cmax: read-out: Cmax (maximum concentration reached within the plasma); for half-life: read-out: T 1/2 (half life) (converted)
# Experimental: Charles River CD-1 mice were dosed with a 25 mg/kg drug solution orally by gavage. For oral dosing the compounds were dissolved in 0.1N NaOH (20% final volume) and then 0.5% methylcellulose (80% final volume) was added. Blood was drawn and pooled from 5 mice at each time point via heart puncture and was placed in a 15 mL centrifuge tube containing heparin. The plasma stored in 200 μL aliquots at −80° C. until assayed.
# Plasma was thawed at room temperature and then 400 μL of acetonitrile was added to each vial and vortexed. Following centrifugation the supernatant was removed and evaporated in a nitrogen evaporator at 48° C. Residue was then resolublized in 200 μL of a 75% water/25% CH3CN solution for HPLC analysis. HPLC analysis used a Zorbax RX-C8 column (4.6×150 mm) with a 25 mM potassium phosphate buffer with 0.1% TFA, pH 3.0. Mobile phases consisted of varying percentages of two buffer mixtures: Buffer A—90% buffer, 10% CH3CN, and Buffer B—30% buffer, 70% CH3CN.
# A standard curve ranging from 0.5 to 50 μg/mL was used for each drug tested. Ten times final concentration solutions of drug in water were prepared from stock solutions of 1 mg/mL drug in DMSO. The final 1:10 dilution was then done in mouse plasma obtained from mice described above.
# [6] = Rat blood levels after oral dosing; assay type: in vivo; details: male, plasma, rats, oral dose of 10 mg/kg; for Cmax: read-out: Cmax (maximum concentration reached within the plasma); for half-life: read-out: T 1/2 (half life) (converted)
# Experimental: as §2
# [7] = recombinant HIV-1 protease, read-out: Inhib of HIV Protease KI
SMILES,pKi [1],"TI (therapeutic index, TC50/EC50) [2]",pEC50 [2],CC50 [3] [nM],C0 [4] [µM],half-life [4] [h],"pKi [1, 7]",Cmax [5] [µM],half-life [5] [h],Cmax [6] [µM],half-life [6] [h]
"CC(C)C1(CCc2ccccc2CO)CC(O)=C(Sc2cc3cc[nH]c3cc2C(C)(C)C)C(=O)O1 (racemic) [Example 69, 4-Hydroxy-3-(6-tert-butyl-indol-5-ylsulfanyl)-6-[2-(2-hydroxymethyl-phenyl)-ethyl]6-isopropyl-5,6-dihydropyran-2-one]",9.17,306,6.74,55000,335,4.5,–,–,–,–,–
"Cc1cc(SC2=C(O)CC(CCc3ccoc3)(C(C)C)OC2=O)c(C(C)(C)C)cc1CO (stereo not shown) [Example 4, 3-(2-tert-Butyl-4-hydroxymethyl-5-methyl-phenylsulfanyl)-6-(2-furan-3-yl-ethyl)-4-hydroxy-6-isopropyl-5,6-dihydro-pyran-2-one]",–,199,6.00,199000,–,–,9.46,54,5.6,–,–
"Cc1cc(SC2=C(O)CC(CCc3ccco3)(C(C)C)OC2=O)c(C(C)(C)C)cc1CO (stereo not shown) [Example 5, 3-(2-tert-Butyl-4-hydroxymethyl-5-methyl-phenylsulfanyl)-6-(2-furan-2-yl-ethyl)-4-hydroxy-6-isopropyl-5,6-dihydro-pyran-2-one]",–,253,6.12,190000,–,–,9.11,–,–,–,–
"Cc1cc(SC2=C(O)CC(CCc3ccsc3)(C(C)C)OC2=O)c(C(C)(C)C)cc1CO (stereo not shown) [Example 7, 3-(2-tert-Butyl-4-hydroxymethyl-5-methyl-phenylsulfanyl)-4-hydroxy-6-isopropyl-6-(2-thiophen-3-yl-ethyl)-5,6-dihydro-pyran-2-one]",–,366,6.52,110000,–,–,9.77,40,3.5,–,–
"Cc1cc(SC2=C(O)CC(CCc3cccs3)(C(C)C)OC2=O)c(C(C)(C)C)cc1CO (stereo not shown) [Example 8, 3-(2-tert-Butyl-4-hydroxymethyl-5-methyl-phenylsulfanyl)-4-hydroxy-6-isopropyl-6-(2-thiophen-2-yl-ethyl)-5,6-dihydro-pyran-2-one]",–,161,6.30,80500,–,–,9.46,–,–,–,–
Cc1cc(SC2=C(O)CC(CCc3csc(CO)c3)(C(C)C)OC2=O)c(C(C)(C)C)cc1CO (stereo not shown) [Example 9],–,117,5.74,210000,–,–,9.72,–,–,–,–
"Cc1cc(SC2=C(O)CC(CCc3ccsc3CO)(C(C)C)OC2=O)c(C(C)(C)C)cc1N (stereo not shown) [Example 11, 3-(4-Amino-2-tert-butyl-5-methyl-phenylsulfanyl)-4-hydroxy-6-[2-(2-hydroxymethyl-thiophen-3-yl)-ethyl]-6-isopropyl-5,6-dihydro-pyran-2-one]",–,458,6.54,133000,–,–,9.64,–,–,–,–
"CC(C)[C@]1(CCc2ccccc2)CC(O)=C(Sc2cc3sc(N)nc3cc2C(C)(C)C)C(=O)O1 [Example 13, (S)-3-(2-Amino-5-tert-butyl-benzothiazol-6-ylsulfanyl)-4-hydroxy-6-isopropyl-6-phenethyl-5,6-dihydro-pyran-2-one]",–,152,6.55,42000,–,–,–,–,–,5.1,8.6
"CC(C)c1cc2nc(N)sc2cc1SC1=C(O)C[C@@](CCc2ccccc2)(C(C)C)OC1=O [Example 14, (S)-3-(2-Amino-5-isopropyl-benzothiazol-6-ylsulfanyl)-4-hydroxy-6-isopropyl-6-phenethyl-5,6-dihydro-pyran-2-one]",–,30,5.60,75000,–,–,9.17,–,–,–,–
"CC(C)C1(CCc2ccccc2CO)CC(O)=C(Sc2sc3ccccc3c2C(C)(C)C)C(=O)O1 (stereo not shown) [Example 22, 3-(3-tert-Butyl-benzo[b]thiophen-2-yl-sulfanyl)-4-hydroxy-6-[2-(2-hydroxymethyl-phenyl)-ethyl]-6-isopropyl-5,6-dihydro-pyran-2-one]",–,43,5.82,66000,–,–,9.07,–,–,–,–
"Cc1cc(SC2=C(O)CC(CCc3nccs3)(C(C)C)OC2=O)c(C(C)(C)C)cc1CO (stereo not shown) [Example 25, 3-(2-tert-Butyl-4-hydroxymethyl-5-methyl-phenylsulfanyl)-4-hydroxy-6-isopropyl-6-(2-thiazol-2-yl-ethyl)-5,6-dihydro-pyran-2-one]",–,308,6.15,216000,120,8,9.24,33,3.3,6,12
"Cc1csc(CCC2(C(C)C)CC(O)=C(Sc3cc(C)c(CO)cc3C(C)(C)C)C(=O)O2)n1 (stereo not shown) [Example 26, 3-(2-tert-Butyl-4-hydroxymethyl-5-methyl-phenylsulfanyl)-4-hydroxy-6-isopropyl-6-[2-(4-methyl-thiazol-2-yl)-ethyl]-5,6-dihydro-pyran-2-one]",–,213,6.10,171000,–,–,9.35,–,–,–,–
"CC(C)c1cc2ncsc2cc1SC1=C(O)C[C@@](CCc2ccc(O)cc2)(C(C)C)OC1=O [Example 48, (S)-4-Hydroxy-6-[2-(4-hydroxy-phenyl)-ethyl]-6-isopropyl-3-(5-isopropyl-benzothiazol-6-ylsulfanyl)-5,6-dihydro-pyran-2-one]",9.40,78,6.43,29000,–,–,–,–,–,–,–
"CC(C)[C@]1(CCc2ccccc2)CC(O)=C(Sc2cc3cc[nH]c3cc2C(C)(C)C)C(=O)O1 [Example 73, (S)-3-(6-tert-Butyl-1H-indol-5-yl-sulfanyl)-4-hydroxy-6-isopropyl-6-(2-phenethyl)-5,6-dihydro-pyran-2-one]",9.27,69,6.21,42000,–,–,–,–,–,–,–
"CC(C)[C@]1(CCc2ccccc2)CC(O)=C(Sc2cc3sc(NS(C)(=O)=O)nc3cc2C(C)(C)C)C(=O)O1 [Example 79, (S)-N-[5-tert-Butyl-6-(4-hydroxy-6-isopropyl-2-oxo-6-phenethyl-5,6-dihydro-2H-pyran-3-ylsulfanyl)-benzothiazol-2-yl]-methanesulfonamide]",8.68,56,5.66,125000,–,–,–,–,–,–,–
"CC(C)[C@]1(CCc2cccc(F)c2)CC(O)=C(Sc2cc3sc(N)nc3cc2C(C)(C)C)C(=O)O1 [Example 83, (S)-3-(2-Amino-5-tert-butyl-benzothiazol-6-ylsulfanyl)-6-[2-(3-fluoro-phenyl)-ethyl]-4-hydroxy-6-isopropyl-5,6-dihydro-pyran-2-one]",9.36,235,6.59,61000,199,4,–,–,–,–,–
